# According to patent US6130250A, “Veterinary use of a pleuromutilin derivative” (priority 1996, dated 2000):
# Values joined by “and” are separate entries in the source; they are usually repeats but may differ in a detail not shown here. Equal entries are not always repeated. Structures can show the parent of a compound that is named as a salt. Where two headings read alike, the source gives them in different places.
# Legend:
# M. hyopneumoniae [1] = assay: MIC against M. hyopneumoniae strains isolated from challenge material; type: cell-based, Mycoplasma hyopneumoniae; details: Mesomycoplasma hyopneumoniae
# M. hyopneumoniae [2] = assay: Prevention of experimentally-induced enzootic pneumonia in vivo (Trials 1-3); set-up: species or system pigs
# Experimental: An experimental model of enzootic pneumonia, using passaged lung material originally derived by infection of gnotobiotic pigs with M. hyopneumoniae,was employed to assess the potential of valnemulin for prevention of the disease. Three trials were performed: Trials 1 and 2 were dose titration studies of the novel compound using a standard challenge strain of M. hyopneumoniae and in Trial 3, the efficacy of the compound at 200 ppm in feed against a second challenge strain was assessed. Large white Landrace male pigs, 6-7 weeks of age, from stock free of infection with M. hyopneumoniae are used. The challenge materials are pneumonic lungs containing M. hyopneumoniae given as a homogenate intranasally on three successive days. […] The challenge material was originally derived by infection of gnotobiotic pigs with M. hyopneumoniae and subsequent passage in SPF (Specific Pathogen-free) pigs and had been stored below -70° C.
# Trial 1: Medication with valnemulin hydrochloride by stomach tube (gavage) once a day at 0 (control), 2.5, 5, 7.5 or 10 mg/kg body weight per day. Six pigs per group.
# Trial 2: Medication with valnemulin hydrochloride in feed at 0, 100, 200, 300 or 400 ppm (equivalent to 0, 5, 10, 15 and 20 mg/kg/day). Six pigs per group.
# Trial 3: Medication with valnemulin hydrochloride in feed at 0 or 200 ppm (equivalent to 0 and 10 mg/kg/day). Eight pigs per group. Medication was given from the first day of challenge infection until post-mortem examination performed approximately 3 weeks after challenge infection. Disease was assessed by quantifying lung lesions [Cambridge lung lesion scoring system (Goodwin, R. F. W. and Whittlestone, P., J. Hyg. 69 [1971] 391-397), in which the score is an approximation of percent of lung affected with pneumonia], by estimation of lung-bodyweight ratio and by isolation of M. hyopneumoniae from lungs.
# Lawsonia intracellularis = Lawsonia intracellularis infection of IEC-18 rat enterocyte cell cultures; type: cell-based; details: for Percentage ratio of Lawsonia intracellularis infection: listed as Valnemulin (ch); for percent of cells infected with Lawsonia intracellularis at 2 µg/mL: IEC-18, 2 μg/ml; for percent of cells infected with Lawsonia intracellularis at 2 µg/mL / percent of cells infected with Lawsonia intracellularis at 8 µg/mL: first strain column, read-out: Percentage ratio of Lawsonia intracellularis infection; for percent of cells infected with Lawsonia intracellularis at 8 µg/mL: IEC-18, 8 μg/ml
# Experimental: The method of Lawson, G. H. K. et al., J. Clin. Microbiol. 31 (1993) 1136-1142 is generally followed, with some modifications (standard Kirby-Bauer disc methods are not applicable to intracellular bacteria):
# Cells: Monolayers of IEC-18 rat enterocyte cell cultures (ATCC CRL 1589) are established and maintained by standard cell culture methods. One day old monolayers of dividing cells (approx. 30% confluence) are prepared for infection on day 0, on glass coverslips in small culture vials (Tracs).
# Inocula: Batches of three strains of Lawsonia intracellularis are used as inocula. These are derived from pigs afflicted with proliferative enteropathy, of the proliferative haemorrhagic enteropathy (PHE) and porcine intestinal adenomatosis (PIA) forms prepared from pig intestines, and passaged in cell cultures as described in the above Lawson reference. The two PHE strains were partly tested for pathogenicity in pigs as described in McOrist, S. et al., Infect. Immun. 61 (1993) 4286-4292. Inocula batches are collected after several cell passages, and stored frozen at -70° C. in 1 ml vials. Preliminary trials established appropriate dilutions of thawed vials that would result in readily recognizeable cell infections in 5 day trials.
# Antibiotics are prepared as 100× stock solutions for each use. Activity of each batch of antibiotic is confirmed by standard Kirby-Bauer disc methods with a laboratory strain of Escherichia coli.
# Infections: On day 0, a vial of each strain is thawed, diluted 1/8 to 1/32 with culture medium, for use in four groups 1 to 4.
# For group 4 (continuous treatment) this inoculum is initially incubated for one hour at 37° C. in culture medium containing the antibiotic at various concentrations prior to addition to cells.
# For group 3 (extracellular activity) this inoculum is prepared in culture medium, containing the antibiotic at various concentrations added immediately prior to time of addition to cells.
# For groups 1 (control) and 2 (intracellular activity) inocula are prepared in culture medium free of antibiotics and added to cells. Culture vials (Tracs) with cells with added inocula (+/- antibiotics) in a total of 0.5 ml of medium are placed in steel jars, evacuated to 40% atmosphere (8% O2), left for 2 min, replenished with hydrogen and finally 10% CO2. Tracs are then removed from these jars and placed into an incubator set to provide a humidified atmosphere of 8% O2, 8.8% CO2 and the remainder nitrogen, at 37° C.
# On days 1 and 2 all vials are removed and refed with fresh medium, either containing antibiotics, groups 2 and 4, or not, groups 1 and 3, and replaced into the incubator. On day 5, all coverslips are removed and stained for Lawsonia intracellularis by indirect immunoperoxidase stain incorporating a specific monoclonal antibody. The number of cells on each coverslip, heavily infected with Lawsonia intracellularis (>30 per cell, heavily infected cell=HIC) is used as the main measure of infection. The number of foci of HIC and general cell observations are also noted. HIC in control (group 1), intracellularly active antibiotic assay (group 2), extracelluiarly active antibiotic assay (group 3) and continuous treatment assay (group 4) are compared in triplicate assays, for up to 3 strains each. Some assay are repeated for various inocula strengths. Percentage ratios are calculated after derivation of the mean HIC of the controls relevant to the test group. Mean control HIC is the total number of HIC in control Tracs divided by the number of infected control Tracs. The percentage ratio of test Tracs is then calculated by dividing their HIC value by the mean control HIC, multiplied by 100 to give a percentage.
# [3] = Trial 2, feed, 100 ppm (5 mg/kg)
# [4] = Trial 2, feed, 200 ppm (10 mg/kg)
# [5] = Trial 2, feed, 300 ppm (15 mg/kg)
# [6] = Trial 2, feed, 400 ppm (20 mg/kg)
# [7] = Trial 3, feed, 200 ppm (10 mg/kg)
# [8] = Lawsonia intracellularis, group 2 (intracellular activity)
# [9] = Lawsonia intracellularis, group 3 (extracellular activity)
compound,measurement,setting,value
"C=C[C@]1(C)C[C@@H](OC(=O)CSC(C)(C)CNC(=O)[C@H](N)C(C)C)[C@]2(C)[C@H](C)CC[C@]3(CCC(=O)[C@H]32)[C@@H](C)[C@@H]1O [valnemulin hydrochloride, 14-O-[1-[(R)-2-amino-3-methylbutyrylamino]-2-methylpropan-2-ylthioacetyl]mutilin]",MIC,M. hyopneumoniae [1]; strain from material used in Trial 3,0.0078 µg/mL
same,MIC,M. hyopneumoniae [1]; strain in material used in Trials 1 & 2,0.016 µg/mL
same,pigs from which M. hyopneumoniae was reisolated,"M. hyopneumoniae [2]; Trial 1, 2.5 mg/kg",4 pigs
same,reduction of lesions,"M. hyopneumoniae [2]; Trial 1, 7.5 mg/kg",71%
same,pigs from which M. hyopneumoniae was reisolated,"M. hyopneumoniae [2]; Trial 1, 10 mg/kg",1 pigs
same,reduction of lesions,"M. hyopneumoniae [2]; Trial 1, 10 mg/kg",87%
same,effect on lesions in words,"M. hyopneumoniae [2]; Trial 1, 2.5 and 5 mg/kg/day",somewhat less effective at reducing lesions
same,Lung lesion score,"M. hyopneumoniae [2]; Trial 1, gavage, 2.5 mg/kg/day",7.7
same,Lung-bodyweight ratio,"M. hyopneumoniae [2]; Trial 1, gavage, 2.5 mg/kg/day",1.21%
same,Lung lesion score,"M. hyopneumoniae [2]; Trial 1, gavage, 5 mg/kg/day",11.1
same,Lung-bodyweight ratio,"M. hyopneumoniae [2]; Trial 1, gavage, 5 mg/kg/day",1.31%
same,Lung lesion score,"M. hyopneumoniae [2]; Trial 1, gavage, 7.5 mg/kg/day",3.8
same,Lung-bodyweight ratio,"M. hyopneumoniae [2]; Trial 1, gavage, 7.5 mg/kg/day",1.21%
same,Lung lesion score,"M. hyopneumoniae [2]; Trial 1, gavage, 10 mg/kg/day",1.7
same,Lung-bodyweight ratio,"M. hyopneumoniae [2]; Trial 1, gavage, 10 mg/kg/day",1.08%
same,pigs from which M. hyopneumoniae was reisolated,"M. hyopneumoniae [2]; Trial 2, 100 ppm",4 pigs
same,reduction in lesions,"M. hyopneumoniae [2]; Trial 2, 100 ppm",No reduction in lesions
same,pigs from which M. hyopneumoniae was reisolated,"M. hyopneumoniae [2]; Trial 2, 200 ppm",3 pigs
same,reduction of lesions,"M. hyopneumoniae [2]; Trial 2, 200 ppm",46%
same,reduction of lesions,"M. hyopneumoniae [2]; Trial 2, 300 ppm",43%
same,reisolation of M. hyopneumoniae,"M. hyopneumoniae [2]; Trial 2, 300 ppm",not reisolated
same,reduction of lesions,"M. hyopneumoniae [2]; Trial 2, 400 ppm",71%
same,reisolation of M. hyopneumoniae,"M. hyopneumoniae [2]; Trial 2, 400 ppm",not reisolated
same,Lung lesion score,M. hyopneumoniae [2]; [3],25
same,Lung-bodyweight ratio,M. hyopneumoniae [2]; [3],1.53%
same,Lung lesion score,M. hyopneumoniae [2]; [4],12
same,Lung-bodyweight ratio,M. hyopneumoniae [2]; [4],1.29%
same,Lung lesion score,M. hyopneumoniae [2]; [5],12.7
same,Lung-bodyweight ratio,M. hyopneumoniae [2]; [5],1.27%
same,Lung lesion score,M. hyopneumoniae [2]; [6],6.3
same,Lung-bodyweight ratio,M. hyopneumoniae [2]; [6],1.24%
same,reduction of lung weights,"M. hyopneumoniae [2]; Trial 2, levels down to 200 ppm",significant reductions at levels down to 200 ppm
same,"levels of M. hyopneumoniae at post-mortem, medicated vs unmedicated","M. hyopneumoniae [2]; Trial 3, 200 ppm",no difference in the levels of M. hyopneumoniae
same,reduction of lesion scores,"M. hyopneumoniae [2]; Trial 3, 200 ppm in feed",79%
same,Lung lesion score,M. hyopneumoniae [2]; [7],2.3
same,Lung-bodyweight ratio,M. hyopneumoniae [2]; [7],1.21%
same,prevention of experimentally-induced enzootic pneumonia,"M. hyopneumoniae [2]; separate experiments, two challenge strains",effective for the prevention of experimentally-induced enzootic pneumonia
same,Percentage ratio of Lawsonia intracellularis infection,"Lawsonia intracellularis; 4 μg/ml, group 2 (intracellular activity)",1.7%
same,Percentage ratio of Lawsonia intracellularis infection,"Lawsonia intracellularis; 4 μg/ml, group 3 (extracellular activity)",0.83% and 1.7%
same,Percentage ratio of Lawsonia intracellularis infection,"Lawsonia intracellularis; 4 μg/ml, group 4 (continuous treatment)",0.8% and 2.5%
same,Percentage ratio of Lawsonia intracellularis infection,"Lawsonia intracellularis; 8 μg/ml, group 2 (intracellular activity)",0.86%
same,Percentage ratio of Lawsonia intracellularis infection,"Lawsonia intracellularis; 8 μg/ml, group 3 (extracellular activity)",0.2% and 1.4%
same,Percentage ratio of Lawsonia intracellularis infection,"Lawsonia intracellularis; 8 μg/ml, group 4 (continuous treatment)",0.5% and 1.4% and 0.2%
same,percent of cells infected with Lawsonia intracellularis at 2 µg/mL,Lawsonia intracellularis; [8],0%
same,percent of cells infected with Lawsonia intracellularis at 2 µg/mL,Lawsonia intracellularis; [9],0%
same,percent of cells infected with Lawsonia intracellularis at 8 µg/mL,Lawsonia intracellularis; [8],0%
same,percent of cells infected with Lawsonia intracellularis at 8 µg/mL,Lawsonia intracellularis; [9],0%
same,percent of cells infected with Lawsonia intracellularis at 8 µg/mL,"Lawsonia intracellularis; Lawsonia intracellularis, group 4 (continuous treatment)",0%
same,MIC,"Lawsonia intracellularis; Lawsonia intracellularis, read-out: minimum concentration to cause significant inhibition of growth (<1% growth)",< 2 µg/mL
